From PMC11594534, “Antimicrobial Peptide Pro10-1D Exhibits Anti-Allergic Activity: A Promising Therapeutic Candidate” (International Journal of Molecular Sciences, 2024)
Square brackets hold non-standard residues; d marks the D form. Peptide text beside a SMILES is read from it.

Legend:
BMMCs [1] = assay: Ionomycin-induced degranulation of BMMCs; assay type: cell-based, mouse; conditions: BMMCs without IgE sensitization, 30 min pre-incubation, 1 μM ionomycin 15 min; two independent experiments
Method: (§1) Figure 5 Pro10-1D suppresses the activity of Lyn and Fyn kinases in vitro. (A) BMMCs (3.0 × 10^5 cells/well) were pre-incubated with Pro10-1D or PP2 for 30 min and then stimulated with 1 μM ionomycin or 300 nM thapsigargin for 15 min. (B,C) KinaseProfiler radiometric protein kinase assays were performed with Lyn and Fyn kinase. The protocols used for the kinase assay are detailed in the Section 4 “Materials and Methods”. (A–C) The data are presented as the mean ± SEM from two independent experiments. Statistical significance is indicated by an asterisk; ** p < 0.01.
(§2) RBL-2H3 cells (2.0 × 10^5 cells/well) were sensitized overnight with 20 ng/mL DNP-specific IgE in the culture medium. BMMCs (3.0 × 10^5 cells/well) were sensitized with 100 ng/mL DNP-specific IgE for 4 h in the culture medium. […] The reaction was stopped by the addition of 250 μL of a 0.1 M carbonate buffer, and absorbance was measured at 405 nm. The degranulation values were calculated as the ratio of β-hexosaminidase activity secreted into the supernatant to the total β-hexosaminidase activity from both the supernatant and cell extract.

BMMCs [2] = assay: Thapsigargin-induced degranulation of BMMCs; assay type: cell-based, mouse; conditions: BMMCs without IgE sensitization, 30 min pre-incubation, 300 nM thapsigargin 15 min; two independent experiments
Method: as §1, §2

[3] = tested on: rat basophilic leukemia (RBL)-2H3 cells; assay: Antigen-induced MC degranulation, β-hexosaminidase assay, RBL-2H3; assay type: cell-based; conditions: RBL-2H3 (2.0 × 10^5 cells/well), DNP-specific IgE 20 ng/mL overnight, Pro10-1D 30 min, then DNP-HSA 25 ng/mL 15 min, 37 °C, Siraganian buffer pH 7.2, absorbance 405 nm, three independent experiments in triplicate, read-out: IC50, inhibition of antigen-induced degranulation
Method: (§3) Figure 1 Pro10-1D inhibits IgE–Ag-induced degranulation in MCs. (A) RBL-2H3 cells and BMMCs were first sensitized with DNP-specific IgE and then treated with Pro10-1D or PP2 for 30 min, followed by the stimulation with DNP-HSA for 15 min. (B) IgE-sensitized RBL-2H3 cells were incubated with or without Pro10-1D for 30 min and then washed three times, followed by the stimulation with the antigen for 15 min. (C) The effects of Pro10-1D on cell viability were evaluated by incubating both RBL-2H3 cells and BMMCs with Pro10-1D for 4 h and measuring the absorbance at 450 nm using the CCK-8 kit. (A,B) The extent of degranulation from the MCs was determined by measuring the ratio of β-hexosaminidase activity released outside the cells to the total β-hexosaminidase activity. The data are presented as the mean ± SEM from three independent experiments, each performed in triplicate. […]
(§4) RBL-2H3 cells were obtained from the American Type Culture Collection (Manassas, VA, USA) and cultured in a complete minimal essential medium (MEM) supplemented with L-glutamine […], streptomycin (100 μg/mL), and 15% fetal bovine serum at 37 °C in a CO2-enriched environment. […] After 4 to 5 weeks of culture, the purity of BMMCs was assessed using flow cytometric analysis, focusing on FcεRIα and c-Kit expression as markers of mast cell maturation. […]

[4] = tested on: bone marrow-derived mast cells (BMMC cells); assay: Antigen-induced MC degranulation, β-hexosaminidase assay, BMMCs; assay type: cell-based, mouse; conditions: BMMCs (3.0 × 10^5 cells/well), DNP-specific IgE 100 ng/mL 4 h, Pro10-1D 30 min, then DNP-HSA 50 ng/mL 15 min, 37 °C, Tyrode buffer pH 7.4, absorbance 405 nm, three independent experiments in triplicate, read-out: IC50, inhibition of antigen-induced degranulation
Method: as §3, §4

RBL-2H3 cells = assay: Cell viability (CCK-8), RBL-2H3; assay type: cell-based, rat; conditions: RBL-2H3, 4 h, CCK-8, absorbance 450 nm, up to highest experimental concentration
Method: (§5) Figure 1 Pro10-1D inhibits IgE–Ag-induced degranulation in MCs. (A) RBL-2H3 cells and BMMCs were first sensitized with DNP-specific IgE and then treated with Pro10-1D or PP2 for 30 min, followed by the stimulation with DNP-HSA for 15 min. (B) IgE-sensitized RBL-2H3 cells were incubated with or without Pro10-1D for 30 min and then washed three times, followed by the stimulation with the antigen for 15 min. (C) The effects of Pro10-1D on cell viability were evaluated by incubating both RBL-2H3 cells and BMMCs with Pro10-1D for 4 h and measuring the absorbance at 450 nm using the CCK-8 kit. (A,B) The extent of degranulation from the MCs was determined by measuring the ratio of β-hexosaminidase activity released outside the cells to the total β-hexosaminidase activity. The data are presented as the mean ± SEM from three independent experiments, each performed in triplicate. Statistical significance is indicated by an asterisk; * p < 0.05, ** p < 0.01. PP2 is a general Src family kinase inhibitor.
(§6) RBL-2H3 cells (2.0 × 10^4 cells/well) were seeded in 96-well plates and incubated for 12 h, after which they were treated with Pro10-1D for 4 h. […] Cell viability was assessed using the Cell Counting Kit-8 (CCK-8) (Dojindo Laboratories, Kumamoto, Japan), following the manufacturer’s protocol. Absorbance was measured at 450 nm to determine cell viability.

BMMCs [5] = assay: Cell viability (CCK-8), BMMCs; assay type: cell-based, mouse; conditions: 4 h, CCK-8, absorbance 450 nm, up to highest experimental concentration
Method: as §5, §6

Lyn = target: T1, Lyn (Mus musculus, UniProt P25911); assay: KinaseProfiler radiometric kinase assay, Lyn; assay type: biochemical; conditions: Km concentration for ATP, [γ-33P]-ATP, Poly (Glu, Tyr) 4:1, 0.1 mg/mL, Tris pH 7.5, 40 min, room temperature, two independent experiments
T1 construct: purchased Eurofins (KinaseProfiler service, Celle-Lévescault, France)
T1 sequence (P25911 whole entry): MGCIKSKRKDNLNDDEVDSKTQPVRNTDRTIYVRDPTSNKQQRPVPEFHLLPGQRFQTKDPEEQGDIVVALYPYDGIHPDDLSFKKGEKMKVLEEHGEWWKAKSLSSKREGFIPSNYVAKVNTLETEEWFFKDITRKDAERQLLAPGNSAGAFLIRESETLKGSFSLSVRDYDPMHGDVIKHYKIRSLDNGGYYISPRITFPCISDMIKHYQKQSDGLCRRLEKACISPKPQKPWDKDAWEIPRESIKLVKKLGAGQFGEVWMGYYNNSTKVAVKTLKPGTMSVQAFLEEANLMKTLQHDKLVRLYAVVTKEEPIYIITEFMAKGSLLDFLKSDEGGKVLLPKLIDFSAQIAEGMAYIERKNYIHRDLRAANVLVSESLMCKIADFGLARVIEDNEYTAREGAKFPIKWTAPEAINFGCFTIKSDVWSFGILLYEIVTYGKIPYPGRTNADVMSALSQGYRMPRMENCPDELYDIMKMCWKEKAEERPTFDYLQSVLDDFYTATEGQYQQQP
Method: as §1
(§7) A radiometric Lyn, Fyn kinase assay was conducted at Eurofins (Celle-Lévescault, France) using KinaseProfiler^TM. The assays were carried out at the Km concentration for ATP in dose response for each kinase. Briefly, the Lyn (mouse) assay was incubated using a mixture of 50 mM Tris pH 7.5, 0.1 mM EGTA, 0.1 mM Na3VO4, 0.1% β-Mercaptoethanol, 0.1 mg/mL Poly (Glu, Tyr) 4:1, 10 mM Magnesium acetate, and [γ^33P]-ATP. The Fyn (human) assay was incubated with a mixture of 50 mM Tris pH 7.5, 0.1 mM EGTA, 0.1 mM Na3VO4, 250 µM KVEKIGEGTYGVVYK (Cdc2 peptide), 10 mM Magnesium acetate, and [γ^33P]-ATP. The activity of Lyn and Fyn was initiated by the addition of the Mg/ATP mix, and the reactions were incubated for 40 min at room temperature. The reaction was halted by adding 0.5% phosphoric acid. […]

Fyn = target: T2, Fyn (Homo sapiens, UniProt P06241); assay: KinaseProfiler radiometric kinase assay, Fyn; assay type: biochemical; conditions: Km concentration for ATP, [γ-33P]-ATP, 250 µM Cdc2 peptide, Tris pH 7.5, 40 min, room temperature, two independent experiments
T2 construct: purchased Eurofins (KinaseProfiler service, Celle-Lévescault, France)
T2 sequence (P06241 whole entry): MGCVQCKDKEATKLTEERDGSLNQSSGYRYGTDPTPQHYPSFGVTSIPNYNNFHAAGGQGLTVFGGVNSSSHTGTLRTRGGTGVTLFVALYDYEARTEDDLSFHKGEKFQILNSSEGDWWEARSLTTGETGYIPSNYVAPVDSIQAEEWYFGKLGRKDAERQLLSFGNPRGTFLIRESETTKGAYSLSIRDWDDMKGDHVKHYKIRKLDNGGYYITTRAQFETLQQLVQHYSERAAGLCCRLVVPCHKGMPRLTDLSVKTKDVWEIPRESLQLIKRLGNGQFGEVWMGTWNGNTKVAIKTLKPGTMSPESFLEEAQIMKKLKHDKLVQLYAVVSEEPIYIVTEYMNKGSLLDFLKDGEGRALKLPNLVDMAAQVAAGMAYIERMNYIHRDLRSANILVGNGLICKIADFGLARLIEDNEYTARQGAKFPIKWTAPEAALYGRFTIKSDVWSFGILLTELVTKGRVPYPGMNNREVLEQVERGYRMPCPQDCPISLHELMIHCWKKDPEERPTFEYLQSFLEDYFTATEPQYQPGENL
Method: as §1, §7

[6] = tested on: mouse macrophage RAW264.7 cells; conditions: cited from earlier work
Excerpt: In this study, we utilized Pro10-1D, a 10-meric peptide developed previously by adding a D-arginine residue at the N terminal of Pro9-3D, an enantiomeric form of Pro9-3 [17].

[7] = tested on: NF-κB and p38 MAPK in MCs; conditions: IgE-independent stimulation; cited from earlier work
Excerpt: MCs play a pivotal role in the late-phase reaction following early-phase activation triggered by Ag stimulation. During the late-phase response, MCs produce and secrete a range of cytokines and chemokines, which further intensify the inflammatory cascade initiated in the early response, leading to the recruitment and activation of various immune cells. The late-phase response of MC activation is instrumental in sustaining and exacerbating allergic symptoms, such as bronchoconstriction and edema. Suppressing MC-mediated late-phase responses, therefore, can help prevent the ...

[8] = tested on: T cells, B cells, and pDC cells; conditions: cited from earlier work
Excerpt: (§8) AMPs are recognized for their antibacterial activities as well as their immunomodulatory activities. The mechanism for their immunomodulatory activity includes the regulation of inflammatory or anti-inflammatory cytokines and the induction of chemoattractants. […] LL-37, produced by neutrophils, neutralize ...

TLR ligands = conditions: cited from earlier work
Excerpt: as §8

[9] = tested on: inflammatory cell influx into bronchoalveolar lavage fluid; conditions: allergic asthma, intranasal application; cited from earlier work
Excerpt: AMPs are small, naturally occurring antimicrobial peptides. In addition to their antimicrobial function, AMPs also play a role in regulating the host’s innate immune system. AMPs typically exert effects that inhibit the growth or induce the death of bacteria, fungi, and parasites. Unlike conventional antibiotics, most AMPs employ a distinct mode of action for their antibacterial activity, targeting the pathogen’s membrane. These unique mechanisms make AMPs promising candidates for the development of next-generation antibiotics. By August 2020, the antimicrobial peptide database c ...

E. coli-induced sepsis = conditions: cited from earlier work
Excerpt: as §8

[10] = tested on: TLR4-NFκB signaling pathway, LPS-TLR4/MD-2; conditions: competitive interference with the LPS-TLR4/MD-2 interaction; cited from earlier work
Excerpt: as §8

Compound: CC(C)(C)n1nc(-c2ccc(Cl)cc2)c2c(N)ncnc21 [PP2, 4-amino-5-(4-chlorophenyl)-7-(dimethylethyl)pyrazolo[3,4-d]pyrimidine]
- inhibition of ionomycin-induced degranulation (BMMCs [1]): much weaker inhibitory effect on thapsigargin or ionomycin-induced degranulation compared to its inhibitory effect on antigen-induced degranulation
- inhibition of thapsigargin-induced degranulation (BMMCs [2]): much weaker inhibitory effect on thapsigargin or ionomycin-induced degranulation compared to its inhibitory effect on antigen-induced degranulation

Compound: CC[C@@H](C)[C@@H](NC(=O)[C@@H](C)NC(=O)[C@@H](CC(C)C)NC(=O)[C@@H](Cc1c[nH]c2ccccc12)NC(=O)[C@@H](CC(C)C)NC(=O)[C@@H](CCCNC(=N)N)NC(=O)[C@H](N)CCCNC(=N)N)C(=O)N[C@H](Cc1c[nH]c2ccccc12)C(=O)N[C@H](CCCNC(=N)N)C(=O)N[C@H](CCCNC(=N)N)C(N)=O [Pro10-1D] (H-[dR][dR][dL][dW][dL][dA][dI][dW][dR][dR]-NH2)
- IC50 [3]: ~11.6 µM
- IC50 [4]: ~2.7 µM
- cellular toxicity / cell viability (RBL-2H3 cells): did not exhibit any signs of cellular toxicity, even at the highest experimental concentration
- cellular toxicity / cell viability (BMMCs [5]): did not exhibit any signs of cellular toxicity, even at the highest experimental concentration
- IC50 (Lyn): ~1.5 µM
- IC50 (Fyn): ~22.6 µM
- toxicity to RAW264.7 cells [6]: non-toxic

Compound: O=C(CO)NCCCOc1cccc(CN2CCCCC2)c1 [roxatidine]
- release of pro-inflammatory cytokines; phosphorylation of NF-κB and p38 MAPK [7]: attenuate the release of pro-inflammatory cytokines by inhibiting the phosphorylation of NF-κB and p38 MAPK

Compound: LL-37
- IL-10 expression [8]: induces IL-10 expression
- effect on pro-inflammatory activity of TLR ligands (TLR ligands): neutralizes the pro-inflammatory activity of TLR ligands

Compound: hBD2: human β-defensin-2 (GIGDPVTCLKSGAICHPVFCPRRYKQIGTCGLPGTKCCKKP; UniProt O15263 24-64, looked up)
- inflammatory cell influx into bronchoalveolar lavage fluid [9]: reduce inflammatory cell influx into bronchoalveolar lavage fluid

Compound: papiliocin
- effect on E. coli-induced sepsis (E. coli-induced sepsis): alleviates the impact of E. coli-induced sepsis
- inhibition of TLR4-NFκB signaling pathway [10]: inhibiting the TLR4-NFκB signaling pathway
